# Assay results reported in US8841310B2, “Combinations of a pyrimidine containing NNRTI with RT inhibitors” (Janssen R & D Ireland, priority 2003, dated 2014).
# Where two headings read alike, the source gives them in different places.
# How the values were obtained:
# HIV-1 [1] = conditions: cited from earlier work
# HIV-1 [2] = conditions: human PBMCs and MT-2 cells, increasing drug concentrations; cited from earlier work
# HIV-1 RT = biological target: T1, HIV-1 RT (Human immunodeficiency virus type 1 group M subtype B, UniProt P04585); conditions: read-out: inhibition constant; cited from earlier work
# T1 construct: The primary target of tenofovir diphosphate is reverse transcriptase (RT)
# HIV-1 wild type = assay: MT-4 cell-based antiviral assay (viral cytopathicity, tetrazolium); conditions: Human immunodeficiency virus 1, MT4
# Method: (§1) Compound E-TMC278 was tested in a cell-based assay, using natural host cells of HIV. MT-4 cells (a cell line of human T cells) were infected with HIV-1 (wild type or mutants) and exposed to different concentrations of antiviral compound in the presence of 10% fetal calf serum. Cytotoxicity was determined in parallel with the antiviral activity so that the selectivity of the antiviral effect could be assessed. Active compounds have to penetrate the cell membrane in order to interfere with replication steps inside the cell.
# (§2) After four days of incubation at 37° C., the viability of the HIV and mock-infected cells was assessed by an automated tetrazolium-based calorimetric assay. This method enabled the calculation of both the 50% inhibitory concentration for inhibition of viral cytopathicity (IC50), the IC90, and the 50% cytotoxic concentration (CC50). The ratio CC50/IC50, also called the selectivity index, is an indication of the specificity of the antiviral effect. Tested HIV strains included: Wild type (wt) HIV-1; a panel of single and double mutants, obtained by site-directed mutagenesis (SDM), and a panel of clinical isolates, selected for resistance against NNRTIs.
# HIV-1 mutant 188L = assay: MT-4 cell-based antiviral assay, SDM mutant
# Method: as §1, §2
# (§3) A limited panel of HIV-1 mutants was constructed using site-directed mutagenesis (SDM) and homologous recombination techniques. […] Nevirapine (NVP) and efavirenz (EFV) were included as controls.
# HIV-1 mutant 225H = assay: MT-4 cell-based antiviral assay, SDM mutant; conditions: Human immunodeficiency virus 1, MT4
# Method: as §1, §2, §3
# HIV-1 mutant 188C = assay: MT-4 cell-based antiviral assay, SDM mutant; conditions: Human immunodeficiency virus 1, MT4
# Method: as §1, §2, §3
# HIV-1 mutant 227L = assay: MT-4 cell-based antiviral assay, SDM mutant; conditions: Human immunodeficiency virus 1, MT4
# Method: as §1, §2, §3
# HIV-1 mutant 179D = assay: MT-4 cell-based antiviral assay, SDM mutant; conditions: Human immunodeficiency virus 1, MT4
# Method: as §1, §2, §3
# HIV-1 mutant 101E = assay: MT-4 cell-based antiviral assay, SDM mutant; conditions: Human immunodeficiency virus 1, MT4
# Method: as §1, §2, §3
# [3] = system: HIV-1 double mutant 101E + 103N; assay: MT-4 cell-based antiviral assay, SDM mutant; conditions: Human immunodeficiency virus 1, MT4, 96 h
# Method: as §1, §2, §3
# HIV-1 mutant 100I = assay: MT-4 cell-based antiviral assay, SDM mutant
# Method: as §1, §2, §3
# HIV-1 mutant 181C = assay: MT-4 cell-based antiviral assay, SDM mutant
# Method: as §1, §2, §3
# HIV-1 mutant 236L = assay: MT-4 cell-based antiviral assay, SDM mutant; conditions: Human immunodeficiency virus 1, MT4
# Method: as §1, §2, §3
# HIV-1 mutant 138K = assay: MT-4 cell-based antiviral assay, SDM mutant; conditions: Human immunodeficiency virus 1, MT4
# Method: as §1, §2, §3
# HIV-1 mutant 190A = assay: MT-4 cell-based antiviral assay, SDM mutant; conditions: Human immunodeficiency virus 1, MT4
# Method: as §1, §2, §3
# HIV-1 mutant 103N = assay: MT-4 cell-based antiviral assay, SDM mutant
# Method: as §1, §2, §3
# [4] = system: HIV-1 double mutant 227L + 106A; assay: MT-4 cell-based antiviral assay, SDM mutant
# Method: as §1, §2, §3
# HIV-1 mutant 106A = assay: MT-4 cell-based antiviral assay, SDM mutant; conditions: Human immunodeficiency virus 1, MT4
# Method: as §1, §2, §3
# HIV-1 mutant 108I = assay: MT-4 cell-based antiviral assay, SDM mutant; conditions: Human immunodeficiency virus 1, MT4
# Method: as §1, §2, §3
# HIV-1 mutant 188H = assay: MT-4 cell-based antiviral assay, SDM mutant; conditions: Human immunodeficiency virus 1, MT4
# Method: as §1, §2, §3
# [5] = system: HIV-1 double mutant 103N + 181I; assay: MT-4 cell-based antiviral assay, SDM mutant; conditions: Human immunodeficiency virus 1, MT4, 96 h
# Method: as §1, §2, §3
# HIV-1 mutant 227C = assay: MT-4 cell-based antiviral assay, SDM mutant
# Method: as §1, §2, §3
# HIV-1 mutant 190S = assay: MT-4 cell-based antiviral assay, SDM mutant; conditions: Human immunodeficiency virus 1, MT4
# Method: as §1, §2, §3
# [6] = system: HIV-1 double mutant 100I + 103N; assay: MT-4 cell-based antiviral assay, SDM mutant
# Method: as §1, §2, §3
# HIV-1 mutant 179E = assay: MT-4 cell-based antiviral assay, SDM mutant; conditions: Human immunodeficiency virus 1, MT4
# Method: as §1, §2, §3
# HIV-1 mutant 234I = assay: MT-4 cell-based antiviral assay, SDM mutant; conditions: Human immunodeficiency virus 1, MT4
# Method: as §1, §2, §3
# wild type HIV-1 = assay: Development of resistance in vitro, MT4 cells, high multiplicity of infection; type: cell-based; conditions: wild type HIV-1, >1 infectious virus per cell, all tested concentrations, total 30 days
# From the text: Emerging virus was collected for pheno- and genotyping. Cultures without evidence of virus replication were further sub-cultivated in the presence of the same concentration of inhibitor for a total duration of 30 days (10 passages).
# [7] = system: monotropic HIV strain Ba-L; assay: MO-DC/CD4(+) T cell co-culture model of sexual HIV transmission; type: cell-based; conditions: in words
# From the text: Immature monocyte derived dendritic cells (immMO-DC) represent a good model for interstitial dendritic cells, which are early targets during sexual HIV transmission and important initiators of the immune response. These immMO-DC were used in “in vitro” models to test the prevention of HIV infection via sexual intercourse or related intimate contact between partners.
# For instance, in one model, monocyte-derived dendritic cells (MO-DC) were infected for 2-hours with the monotropic HIV strain Ba-L at a multiplicity of infection (MOI) of 10^−3. After infection, cells were washed 6 times and resuspended in 10% BCS at 400.000 cells/ml. Autologous CD4(+) T cells were purified out of the lymphocyte fraction of the same elutration as the MO-DC and used at a concentration of 2×10^6 cells/ml ((ratio MO-DC/CD4(+) T: 1/5).
# A serial dilution of a compound of formula (I) (test compound) was added to the MO-DC/CD4(+) T cell co-cultures. Each experiment was done in 96-well plates, in which each cup contained 50 μl of MO-DC, 50 μl of CD4(+) T cells and 100 μl of test compound. Half of the culture medium, with test compound, was refreshed twice weekly. Supernatants were analysed in ELISA after 14 days of culture. To determine antiviral activity, the test compound concentration able to suppress 50% of the viral replication at the end of the primary cultures (EC50) was measured.
# [8] = system: HIV-1 double mutant 103N + 181C; assay: MT-4 cell-based antiviral assay, SDM mutant; conditions: Human immunodeficiency virus 1, MT4, read-out: IC50 value
# Method: as §1, §2, §3
# HIV = conditions: short course of monotherapy; cited from earlier work
# [9] = system: wild-type or zidovudine-resistant HIV-1 strains; conditions: MT-4 cells; cited from earlier work
# HIV-1 M184V = conditions: cited from earlier work
# [10] = system: laboratory strain of HIV with combination of 65R, 74V, 115F and/or 184V; conditions: combination of resistance mutations; cited from earlier work
# [11] = system: recombinant virus expressing the K65R mutation; conditions: in vitro; cited from earlier work
# [12] = system: clinical HIV strains expressing the M184V mutation; conditions: cited from earlier work
# [13] = system: simian immunodeficiency virus; conditions: SIV after 5 to 15 weeks treatment, 30 mg/kg, newborn rhesus macaques; cited from earlier work
# [14] = wild type, MT-4 cells, 10% fetal calf serum, read-out: IC50
# [15] = Human immunodeficiency virus 1, MT4
# [16] = Human immunodeficiency virus 1, MT4, 96 h
# [17] = Human immunodeficiency virus 1, MT4, 96 h, 100I + 103N, MT-4 cells
# [18] = Human immunodeficiency virus 1, MT4, read-out: IC50 value
compound,measurement,setting,value
"Nc1nc(=O)n([C@@H]2CS[C@H](CO)O2)cc1F (racemic) [(−)-beta-enantiomer of FTC, Emtricitabine]",in vitro anti-HIV-1 activity relative to the (+)-beta-enantiomer,HIV-1 [1],20 fold
"Nc1nc(=O)n([C@@H]2CS[C@H](CO)O2)cc1F (racemic) [FTC, (±)-cis-4-amino-5-fluoro-1-[2-(hydroxymethyl)-1,3-oxathiolan-5-yl]-2(1H)-pyrimidinone]",cycles of infection until highly drug-resistant variants dominated,HIV-1 [2],two or more
CC(Cn1cnc2c(N)ncnc21)OCP(=O)(O)OP(=O)(O)OP(=O)(O)O (stereo in doubt) [Tenofovir diphosphate],Ki,HIV-1 RT,~900 nM
"O=C1Nc2ccc(Cl)cc2[C@@](C#CC2CC2)(C(F)(F)F)O1 [EFV, efavirenz]",IC50,HIV-1 wild type; [14],1.4 nM
same,IC50,HIV-1 mutant 188L; [15],78 nM
same,IC50,HIV-1 mutant 225H,2 nM
same,IC50,HIV-1 mutant 188C,5 nM
same,IC50,HIV-1 mutant 227L,0.3 nM
same,IC50,HIV-1 mutant 179D,6 nM
same,IC50,HIV-1 mutant 101E,5 nM
same,IC50,[3],84 nM
same,IC50,HIV-1 mutant 100I; [15],35 nM
same,IC50,HIV-1 mutant 181C; [15],2 nM
same,IC50,HIV-1 mutant 236L,1 nM
same,IC50,HIV-1 mutant 138K,1.3 nM
same,IC50,HIV-1 mutant 190A,8 nM
same,IC50,HIV-1 mutant 103N; [15],28 nM
same,IC50,[4]; [16],8 nM
same,IC50,HIV-1 mutant 106A,23 nM
same,IC50,HIV-1 mutant 108I,2 nM
same,IC50,HIV-1 mutant 188H,9 nM
same,IC50,[5],37 nM
same,IC50,HIV-1 mutant 227C; [15],36 nM
same,IC50,HIV-1 mutant 190S,275 nM
same,IC50,[6]; [17],10000 nM
same,IC50,HIV-1 mutant 179E,5 nM
"Cc1ccnc2c1NC(=O)c1cccnc1N2C1CC1 [NVP, 11-cyclopropyl-5,11-dihydro-4-methyl-6H-dipyrido-[3,2-b: 2′,3′-e][1,4]diazepin-6-one]",IC50,HIV-1 wild type; [14],81 nM
same,IC50,HIV-1 mutant 234I,45 nM
same,IC50,HIV-1 mutant 188L; [15],10000 nM
same,IC50,HIV-1 mutant 225H,171 nM
same,IC50,HIV-1 mutant 188C,3760 nM
same,IC50,HIV-1 mutant 227L,78 nM
same,IC50,HIV-1 mutant 179D,161 nM
same,IC50,HIV-1 mutant 101E,547 nM
same,IC50,[3],7030 nM
same,IC50,HIV-1 mutant 100I; [15],597 nM
same,IC50,HIV-1 mutant 181C; [15],≥ 10000 nM
same,IC50,HIV-1 mutant 236L,41 nM
same,IC50,HIV-1 mutant 138K,64 nM
same,IC50,HIV-1 mutant 190A,4100 nM
same,IC50,HIV-1 mutant 103N; [15],2880 nM
same,IC50,[4]; [16],10000 nM
same,IC50,HIV-1 mutant 106A,2980 nM
same,IC50,HIV-1 mutant 188H,241 nM
same,IC50,[5],10000 nM
same,IC50,HIV-1 mutant 227C; [15],1820 nM
same,IC50,HIV-1 mutant 190S,10000 nM
same,IC50,[6]; [17],10000 nM
same,IC50,HIV-1 mutant 179E,158 nM
same,time to emergence of resistant virus,wild type HIV-1,3 to 6 days
"Cc1cc(C=CC#N)cc(C)c1Nc1ccnc(Nc2ccc(C#N)cc2)n1 [TMC278, 4-[[4-[[4-(2-cyanoethenyl)-2,6-dimethylphenyl]-amino]-2-pyrimidinyl]-amino]-benzonitrile]",inhibition of HIV replication in MO-DC/CD4(+) T cell co-cultures,[7],potently inhibits HIV replication
"Cc1cc(/C=C\C#N)cc(C)c1Nc1ccnc(Nc2ccc(C#N)cc2)n1 [Z-TMC278, (Z)-4-[[4-[[4-(2-cyanoethenyl)-2,6-dimethylphenyl]-amino]-2-pyrimidinyl]-amino]-benzonitrile]",IC50,"HIV-1 wild type; Table 1, HIV RT mutation: Wild-type, read-out: IC50 value",0.6 nM
same,IC50,HIV-1 mutant 188L; [18],32 nM
same,IC50,[8],40 nM
same,IC50,HIV-1 mutant 100I; [18],6.3 nM
same,IC50,HIV-1 mutant 181C; [18],5 nM
same,IC50,HIV-1 mutant 103N; [18],1.6 nM
same,IC50,[4]; [18],4 nM
same,IC50,HIV-1 mutant 227C; [18],4 nM
same,IC50,"[6]; Human immunodeficiency virus 1, MT4, read-out: IC50 value, Table 1, HIV RT mutation: 100I + 103N",790 nM
Nc1nc(NC2CC2)c2ncn([C@H]3C=C[C@@H](CO)C3)c2n1 [abacavir],average reduction in viral load,HIV,more than 1.4 log 10 RNA copies/ml
same,passages until significant decrease in susceptibility,[9],eight to ten
same,decrease in HIV-1 susceptibility,HIV-1 M184V,3 fold
same,reduction in susceptibility,[10],10 fold
C[C@H](Cn1cnc2c(N)ncnc21)OCP(=O)(O)O [tenofovir],decreased susceptibility,[11],3 fold
same,susceptibility in vitro,[12],wild-type or increased susceptibility
same,decreased susceptibility,[13],approximately 5 fold
